Results reported in PMC3473092 (Science (New York, N.Y.), 2011).
Entries after “also recorded” stand apart in the source; their conditions may differ. Like-named read-outs stand apart in the source and are kept apart here.

Experiments:
[1] = test system: P. falciparum W2 parasites; experiment: Blood-stage SYBR green assay, P. falciparum W2; assay type: cell-based; conditions: Plasmodium falciparum, W2, read-out: Blood IC50
HepG2-A16-CD81EGFP cells = experiment: HepG2-A16-CD81EGFP inhibition; assay type: cell-based; conditions: Homo sapiens, HepG2, read-out: HepG2 inhibition IC50
P. yoelii EEF = experiment: P. yoelii liver-stage; assay type: cell-based, Plasmodium yoelii; conditions: for activity against EEFs (in words): P. yoelii liver assay; for IC50: Plasmodium yoelii, 48 h, read-out: P. yoelii EEF IC50; for efficacy when compound added 15 and 27 hours post-invasion: end-point 51 hpi, Fig. 2C; for Median parasite area: ±SD, DMSO control 160 to 180 μm^2, smallest size detected 9 μm^2
P. berghei sporozoites = experiment: Rodent malaria model of causal prophylactic treatment; assay type: in vivo, Plasmodium berghei; conditions: for blood stage parasitemia in later blood smear examinations / in vivo bioluminescence signal of developing parasite: GNF179 15 mg/kg, atovaquone 2.5 mg/kg, treated at 6 hpi, Fig. 2D
Plasmodium berghei [2] = experiment: P. berghei blood-stage mouse model, single oral dose; assay type: in vivo; conditions: for average survival times: mice infected with P. berghei, single oral dose at 100 mg/kg
[3] = test system: P. falciparum blood stages; experiment: P. falciparum blood stage cultures in vitro; assay type: cell-based, Plasmodium falciparum; conditions: text b23, strain not given
Plasmodium berghei [4] = conditions: 100 mg/kg oral dose; cited from earlier work
[5] = mouse
[6] = test system: parasite protein biosynthesis; experiment: Parasite protein biosynthesis inhibition; assay type: cell-based; conditions: Fig. S4
[7] = mouse, in vivo, po
[8] = test system: strains having mutations making them resistant to atovaquone and pyrimethamine; experiment: Cross-resistance with strains resistant to liver-stage drugs; assay type: cell-based; conditions: Table S6
[9] = 15 p.o. mg/kg, 1–3 hours prior to sporozoite injection
[10] = 30 p.o. mg/kg, 1–3 hours prior to sporozoite injection
[11] = 5 p.o. mg/kg, 1–3 hours prior to sporozoite injection
[12] = 15 p.o. mg/kg, six hours after infection

With C[C@@H]1CC[C@H]2[C@@H](C)C(=O)O[C@@H]3O[C@@]4(C)CC[C@@H]1[C@]32OO4 [Artemisinin] the IC50 [1] was 3.3 ± 0.4 nM, the IC50 (HepG2-A16-CD81EGFP cells) was > 10000 nM and the “activity against EEFs (in words)” value (P. yoelii EEF) was “inactive”. For the same compound, the IC50 (P. yoelii EEF) was > 10000 nM.
In the case of O=C1C(O)=C([C@H]2CC[C@H](c3ccc(Cl)cc3)CC2)C(=O)c2ccccc21 [Atovaquone], the IC50 [1] is reported as 2.2 ± 0.4 nM, the “Average Survival (%)” value (P. berghei sporozoites; 2.5 p.o. mg/kg, 1–3 hours prior to sporozoite injection) is reported as 100% and the “Average Survival (%)” value (P. berghei sporozoites; 2.5 p.o. mg/kg, six hours after infection) is reported as 100%. The “blood stage parasitemia in later blood smear examinations” value (P. berghei sporozoites) was “no blood stage parasitemia was detected”, the “in vivo bioluminescence signal of developing parasite” value (P. berghei sporozoites) was “No luminescence signal was detected” and the IC50 (HepG2-A16-CD81EGFP cells) was 9500 ± 2500 nM. For the same compound, the “efficacy when compound added 15 and 27 hours post-invasion” value (shortened to “efficacy”) (P. yoelii EEF; 1 μM) was “remained active later in EEF development”, the Median parasite area (P. yoelii EEF; 1 μM) was 18.2±1.0 μm^2 and the Median parasite area (P. yoelii EEF; 10 μM) was 18.6±1.0 μm^2. For the same compound, the “activity against EEFs (in words)” value (P. yoelii EEF) was “confirmed as active” and the IC50 (P. yoelii EEF) was 9.4 ± 15 nM.
COc1ccc2cc3[n+](cc2c1OC)CCc1cc2c(cc1-3)OCO2 [Berberine] gave an IC50 [1] of 117 ± 9 nM, an IC50 (HepG2-A16-CD81EGFP cells) of 2600 ± 500 nM and a Median parasite area (P. yoelii EEF; 1 μM) of 46.4±7.0 μm^2. For the same compound, the Median parasite area (P. yoelii EEF; 10 μM) was 22.4±2.3 μm^2, the “activity against EEFs (in words)” value (P. yoelii EEF) was “confirmed as active” and the IC50 (P. yoelii EEF) was 224 ± 152 nM.
With CCN(CC)CCCC(C)Nc1ccnc2cc(Cl)ccc12 (stereo not shown) [Chloroquine] the IC50 [1] was 84 ± 3 nM, the average survival times (Plasmodium berghei [2]) was 12.5 days and the IC50 (HepG2-A16-CD81EGFP cells) was 1600 ± 300 nM. The Median parasite area (P. yoelii EEF; 1 μM) was 65.4±9.5 μm^2, the Median parasite area (P. yoelii EEF; 10 μM) was < 9 μm^2 and the IC50 (P. yoelii EEF) was 1650 nM.
For C[C@@H]1C[C@@H]([C@H](O)CC2CC(=O)NC(=O)C2)C(=O)[C@@H](C)C1 [Cycloheximide], the IC50 [1] was 366 ± 69 nM, the IC50 (HepG2-A16-CD81EGFP cells) was 220 ± 100 nM and the Median parasite area (P. yoelii EEF; 1 μM) was <9 μm^2. The Median parasite area (P. yoelii EEF; 10 μM) was <9 μm^2.
With CCCCCCCCCCOc1cc2c(O)c(C(=O)OCC)cnc2cc1OCC [Decoquinate] the IC50 [1] was 0.25 ± 0.06 nM, the IC50 (HepG2-A16-CD81EGFP cells) was > 10000 nM and the Median parasite area (P. yoelii EEF; 1 μM) was 17.7±0.3 μm^2. For the same compound, the Median parasite area (P. yoelii EEF; 10 μM) was 18.8±4.7 μm^2 and the IC50 (P. yoelii EEF) was 0.16 ± 0.02 nM.
For CC[C@@H](C(=O)[C@@H](C)[C@@H](O)[C@H](C)CCc1ccc(C)c(O)c1C(=O)O)[C@H]1O[C@](CC)([C@H]2CC[C@](O)(CC)[C@H](C)O2)C[C@@H]1C [Lasalocid], the IC50 [1] was 50 ± 8 nM, the IC50 (HepG2-A16-CD81EGFP cells) was 3900 ± 1400 nM and the “efficacy” value (P. yoelii EEF; 1 μM) was “remained active later in EEF development”. For the same compound, the Median parasite area (P. yoelii EEF; 1 μM) was < 9 μm^2, the Median parasite area (P. yoelii EEF; 10 μM) was < 9 μm^2 and the “activity against EEFs (in words)” value (P. yoelii EEF) was “confirmed as active”. It also gave an IC50 (P. yoelii EEF) of 37 ± 20 nM.
OC(c1cc(C(F)(F)F)nc2c(C(F)(F)F)cccc12)C1CCCCN1 (stereo not shown) [Mefloquine] showed an IC50 [1] of 9.5 ± 10 nM, an IC50 (HepG2-A16-CD81EGFP cells) of 3100 ± 600 nM and a Median parasite area (P. yoelii EEF; 1 μM) of 65.4±4.7 μm^2. The Median parasite area (P. yoelii EEF; 10 μM) was < 9 μm^2, the “activity against EEFs (in words)” value (P. yoelii EEF) was “marginal activity” and the IC50 (P. yoelii EEF) was 3270 nM.
In the case of C[C@H]1Cc2c([nH]c3cc(Cl)c(F)cc23)[C@@]2(N1)C(=O)Nc1ccc(Cl)cc12 [NITD609], the “potency against P. falciparum blood stages” value [3] is reported as ~ 1 nM, the “Average Survival (%)” value (P. berghei sporozoites; [9]) is reported as 0% and the “Prepatent Period” value (P. berghei sporozoites; [9]) is reported as 4.5 days. The “Average Survival (%)” value (P. berghei sporozoites; [10]) was 0%, the “Prepatent Period” value (P. berghei sporozoites; [10]) was 4.2 days and the “cure in a blood-stage animal model” value (Plasmodium berghei [4]) was “fully curative”. The “activity against EEFs (in words)” value (P. yoelii EEF) was “inactive”.
With CO[C@@H]1C(=O)CC[C@]2(CO2)[C@@]1(O)[C@@]1(C)O[C@@H]1CC=C(C)C [Ovalicin] the IC50 [1] was > 10000 nM, the IC50 (HepG2-A16-CD81EGFP cells) was > 10000 nM and the Median parasite area (P. yoelii EEF; 1 μM) was 35.1±3.1 μm^2. The Median parasite area (P. yoelii EEF; 10 μM) was 19.1±0.9 μm^2, the “effect on the infection ratio” value (P. yoelii EEF; Fig. 1E) was “no drug effect is seen; also recorded: no measurable effect” and the “activity against EEFs (in words)” value (P. yoelii EEF) was “confirmed as active”. For the same compound, the IC50 (P. yoelii EEF) was 0.7 ± 0.3 nM.
For COc1cc(NC(C)CCCN)c2ncccc2c1 (stereo not shown) [Primaquine], the IC50 [1] was 317 ± 60 nM, the IC50 (HepG2-A16-CD81EGFP cells) was 6100 ± 1900 nM and the Median parasite area (P. yoelii EEF; 1 μM) was 56.8±15.6 μm^2. The Median parasite area (P. yoelii EEF; 10 μM) was < 9 μm^2, the “activity against EEFs (in words)” value (P. yoelii EEF) was “confirmed as active” and the IC50 (P. yoelii EEF) was 1160 nM.
For CCc1nc(N)nc(N)c1-c1ccc(Cl)cc1 [Pyrimethamine], the IC50 [1] was 15 ± 2 nM, the IC50 (HepG2-A16-CD81EGFP cells) was 6300 ± 3300 nM and the “efficacy” value (P. yoelii EEF; 1 μM) was “the parasites grew to normal size”. The Median parasite area (P. yoelii EEF; 1 μM) was 31.1±0.7 μm^2, the Median parasite area (P. yoelii EEF; 10 μM) was 29.6±2.0 μm^2 and the “activity against EEFs (in words)” value (P. yoelii EEF) was “confirmed as active”. For the same compound, the IC50 (P. yoelii EEF) was 2.4 ± 1.6 nM.
C[C@H]1[C@H](OC(=O)CCC(=O)O)O[C@@H]2O[C@@]3(C)CC[C@H]4[C@H](C)CC[C@@H]1[C@@]24OO3 [artesunate] showed an average survival times (Plasmodium berghei [2]) of 7 days.
In the case of GNF179, the “potency against P. falciparum blood stages” value [3] is reported as 7 nM, the “clearance CL” value ([5]; in vivo) is reported as 22 mL/min/kg and the “clearance as share of hepatic blood flow in mice” value ([5]; in vivo) is reported as ~ 25%. The “residence time MRT” value ([5]; in vivo) was 9 h, the “steady-state volume of distribution Vss” value ([5]; in vivo) was 11.8 L/kg and the “terminal half-life t1/2” value ([5]; in vivo) was 8.9 h. The “in vivo oral bioavailability” value ([5]; po) was 58%, the “inhibition of parasite protein biosynthesis” value [6] was “does not rapidly inhibit parasite protein biosynthesis” and the “Average Survival (%)” value (P. berghei sporozoites; [11]) was 20%. The “Prepatent Period” value (P. berghei sporozoites; [11]) was 4.2 days, the “Average Survival (%)” value (P. berghei sporozoites; [9]) was 100% and the “Average Survival (%)” value (P. berghei sporozoites; [12]) was 80%. For the same compound, the “Prepatent Period” value (P. berghei sporozoites; [12]) was 6.2 days, the “Average Survival (%)” value (P. berghei sporozoites; 20 p.o. mg/kg, 1–3 hours prior to sporozoite injection) was 100% and the “blood stage parasitemia in later blood smear examinations” value (P. berghei sporozoites) was “no blood stage parasitemia was detected”. For the same compound, the “in vivo bioluminescence signal of developing parasite” value (P. berghei sporozoites) was “No luminescence signal was detected”, the Cmax ([7]; 15 mg/kg) was 55 µM and the Cmax ([7]; 100 mg/kg) was 193 µM. For the same compound, the half-life in liver ([7]; 100 mg/kg) was 7 to 9 h, the “mouse survival prolonged by an average of” value (Plasmodium berghei [2]; single 100 mg/kg oral dose) was 19 days and the “reduction of Plasmodium berghei parasitemia levels” value (Plasmodium berghei [2]; single 100 mg/kg oral dose, mice) was 99.7%. The cross-resistance [8] was “no cross-resistance” and the “efficacy” value (P. yoelii EEF; 1 μM) was “remained active later in EEF development”.
